Test systems include CAKI-1 renal; HCT-15 colon; HOP-92 NSCLC; HS 578T breast; NCI-H226 lung; OVCAR-4 ovarian; RXF 393 renal; SK-OV-3 ovarian; SNB-19 CNS; SR leukemia.
Common to all, as to assay: NCI anticancer screen, dose series, 48 h

SMILES strings stand for the structures. Values joined by “and” are separate entries in the source; they are usually repeats but may differ in a detail not shown here. Identical values can stand only once.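 A five-concentration, 48-hour dose response in 96-well plates underlies each endpoint, interpolated linearly between surrounding concentrations. GI50 marks 50% less growth. At the TGI there is no net growth.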

With `Cc1ccc(N)cc1[As]=[As]c1cc(N)ccc1C` (stereo not given), the GI50 in the experiment on CAKI-1 renal is 1.5 µM; with HCT-15 colon it was 750 nM; in the experiment on HOP-92 NSCLC it was 0.997 µM; in the experiment with HS 578T breast, 2.81 µM; in the experiment on NCI-H226 lung, 1.57 µM; in the experiment on OVCAR-4 ovarian, 1.42 µM. For the same compound, the GI50 with RXF 393 renal was 1.19 µM; in the experiment on SK-OV-3 ovarian it was 3.59 µM; with SNB-19 CNS, 1.68 µM; with SR leukemia, 944 nM. The TGI was 2.86 µM in the experiment on CAKI-1 renal; 2.24 µM with HCT-15 colon; 2.4 µM with HOP-92 NSCLC; more than 100 µM with HS 578T breast; 3.07 µM with NCI-H226 lung; 2.79 µM in the experiment with OVCAR-4 ovarian. Moreover, the TGI in the experiment with RXF 393 renal is 2.47 µM; in the experiment with SK-OV-3 ovarian, 9.43 µM; in the experiment on SNB-19 CNS, 3.24 µM; in the experiment on SR leukemia, more than 25.1 µM.
On to `C#C[C@@]1(O)[C@@H](CO)O[C@@H](n2cc(Br)c3c(Cl)ccnc32)[C@@H]1O`, for which the GI50 in the experiment on CAKI-1 renal was 0.602 µM; with HCT-15 colon it was 550 nM; in the experiment on HOP-92 NSCLC, 0.115 µM; in the experiment with HS 578T breast it was 1.01 µM; in the experiment with NCI-H226 lung it was 1.08 µM; with OVCAR-4 ovarian it was 0.677 µM. Besides, the GI50 in the experiment on RXF 393 renal is 0.283 µM; in the experiment on SK-OV-3 ovarian, 3.66 µM; in the experiment on SNB-19 CNS it was 1.54 µM; with SR leukemia it was 1060 nM. The TGI in the experiment with CAKI-1 renal is more than 100 µM; in the experiment with HCT-15 colon it was more than 100 µM; in the experiment on HOP-92 NSCLC, 0.916 µM; in the experiment on HS 578T breast it was more than 100 µM; in the experiment on NCI-H226 lung, more than 27 µM; in the experiment on OVCAR-4 ovarian it was more than 100 µM. Moreover, the TGI was 1.23 µM in the experiment with RXF 393 renal, more than 100 µM in the experiment on SK-OV-3 ovarian, more than 100 µM with SNB-19 CNS and more than 100 µM with SR leukemia.
For the compound `Cc1nc2sc(C(=O)Nc3cccc(Br)c3C)c(N)c2cc1C(O)c1ccccc1` (stereo not given), the GI50 is 0.0601 µM in the experiment on CAKI-1 renal; 34.8 nM in the experiment with HCT-15 colon; 1.33 µM in the experiment with HOP-92 NSCLC; 0.0345 µM with HS 578T breast; 0.546 µM in the experiment on NCI-H226 lung; 0.147 µM in the experiment on OVCAR-4 ovarian. Moreover, the GI50 is 0.0294 µM in the experiment with RXF 393 renal, 0.0609 µM in the experiment with SK-OV-3 ovarian, 0.0598 µM in the experiment on SNB-19 CNS and 37.4 nM with SR leukemia. Further, the TGI with CAKI-1 renal is 6.63 µM; with HCT-15 colon, 11.5 µM; in the experiment on HOP-92 NSCLC it was 16.5 µM; in the experiment with HS 578T breast it was 6.04 µM; in the experiment on NCI-H226 lung, 22.4 µM; in the experiment with OVCAR-4 ovarian, more than 70.5 µM. For the same compound, the TGI with RXF 393 renal was 26 µM; in the experiment with SK-OV-3 ovarian, 75.8 µM; in the experiment on SNB-19 CNS it was more than 100 µM; with SR leukemia, more than 100 µM.
In the case of `Cn1c(CCCC(=O)O)nc2cc(N(CCCl)CCCl)ccc21`, the GI50 with CAKI-1 renal is 53.2 µM; in the experiment with HCT-15 colon it was more than 100000 nM; in the experiment on HOP-92 NSCLC, 33.5 µM; in the experiment on HS 578T breast, more than 83.3 µM; with NCI-H226 lung, more than 66.2 µM; in the experiment on OVCAR-4 ovarian it was more than 100 µM. Moreover, the GI50 in the experiment on RXF 393 renal was more than 100 µM; with SK-OV-3 ovarian, more than 86.4 µM; with SNB-19 CNS, 97.9 µM; with SR leukemia, 40400 nM. For the same compound, the TGI in the experiment with CAKI-1 renal was more than 86.8 µM; with HCT-15 colon, more than 100 µM; with HOP-92 NSCLC, more than 93.3 µM; in the experiment on HS 578T breast, more than 100 µM; in the experiment with NCI-H226 lung, more than 100 µM; in the experiment on OVCAR-4 ovarian, more than 100 µM. In addition, the TGI with RXF 393 renal, in the experiment on SK-OV-3 ovarian, with SNB-19 CNS and in the experiment with SR leukemia was more than 100 µM throughout.
Regarding `Cc1cc(O)ccc1C1=NN(c2ccc(S(N)(=O)=O)cc2)C(=O)CC1`, the GI50 was 4.08 µM and 4.93 µM with CAKI-1 renal; 2670 nM and 4200 nM in the experiment on HCT-15 colon; 11.1 µM and 18.5 µM in the experiment on HOP-92 NSCLC; 6.64 µM and 60.5 µM with HS 578T breast; 10.9 µM and 94.5 µM in the experiment on NCI-H226 lung; more than 100 µM in the experiment with OVCAR-4 ovarian. Moreover, the GI50 was 6.31 µM and 13.7 µM in the experiment with RXF 393 renal; 10.8 µM and 51.7 µM in the experiment on SK-OV-3 ovarian; 27.4 µM and 20.3 µM in the experiment with SNB-19 CNS; 1050 nM and 1120 nM with SR leukemia. Besides, the TGI was 50 µM and 82.1 µM in the experiment with CAKI-1 renal; 50 µM and > 100 µM in the experiment on HCT-15 colon; 50 µM and 75.5 µM in the experiment on HOP-92 NSCLC; 43.9 µM and > 100 µM in the experiment with HS 578T breast; 50 µM and > 100 µM in the experiment on NCI-H226 lung; more than 100 µM with OVCAR-4 ovarian. For the same compound, the TGI in the experiment with RXF 393 renal was 50 µM and 42.1 µM; in the experiment with SK-OV-3 ovarian it was 50 µM and > 100 µM; in the experiment with SNB-19 CNS, 50 µM and > 100 µM; in the experiment on SR leukemia it was 50 µM and 6.78 µM.
Consider `O=C(Nc1nc(-c2ccc(Cl)cc2)cs1)c1cc(O)c(O)c(O)c1`, for which the GI50 is 115 µM in the experiment on CAKI-1 renal; 150000 nM with HCT-15 colon; 115 µM in the experiment with HOP-92 NSCLC; 479 µM in the experiment on HS 578T breast; 663 µM in the experiment on NCI-H226 lung; 142 µM with OVCAR-4 ovarian. Also, the GI50 with RXF 393 renal is 166 µM; in the experiment on SK-OV-3 ovarian, 538 µM; with SNB-19 CNS, 144 µM; with SR leukemia, 96300 nM. Besides, the TGI in the experiment on CAKI-1 renal is 660 µM; in the experiment with HCT-15 colon, more than 5000 µM; in the experiment with HOP-92 NSCLC, 1050 µM; with HS 578T breast it was more than 5000 µM; in the experiment on NCI-H226 lung, 2570 µM; in the experiment on OVCAR-4 ovarian it was 2490 µM. Besides, the TGI in the experiment on RXF 393 renal is 923 µM; with SK-OV-3 ovarian it was 3420 µM; in the experiment on SNB-19 CNS, more than 5000 µM; with SR leukemia it was 1060 µM.
Consider `O=S(=O)(NC1=NCCN1C(=S)SN1CCn2c1nsc2=S)c1ccc(Oc2ccccc2)cc1`, for which the GI50 in the experiment on CAKI-1 renal is more than 100 µM; in the experiment with HCT-15 colon it was 72100 nM; in the experiment on HOP-92 NSCLC, 74.2 µM; in the experiment with HS 578T breast, 27.5 µM; with NCI-H226 lung, more than 100 µM; with OVCAR-4 ovarian, 79.1 µM. For the same compound, the GI50 with RXF 393 renal was 32.4 µM; with SK-OV-3 ovarian, more than 100 µM; in the experiment on SNB-19 CNS it was more than 100 µM; with SR leukemia it was 3700 nM. For the same compound, the TGI in the experiment with CAKI-1 renal, in the experiment with HCT-15 colon, in the experiment on HOP-92 NSCLC, in the experiment on HS 578T breast, in the experiment on NCI-H226 lung and in the experiment on OVCAR-4 ovarian was more than 100 µM in each case. In addition, the TGI in the experiment on RXF 393 renal was 86.1 µM; with SK-OV-3 ovarian, more than 100 µM; with SNB-19 CNS, more than 100 µM; in the experiment on SR leukemia it was 45.8 µM.

Values taken from PubChem BioAssay (NCI).
